Source: the supplement of paper PMC10307832

How the values were obtained:
Assay in all cases: relative viability (nuclei count vs DMSO), 5 days (fraction); higher = more cells survive
ABC-1 = tested on: ABC-1
In short: (§1)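 Lung cancer cell lines in 1536-well plates were dosed by pin tool the day after seeding, either with one drug alone or with a fixed anchor-drug dose plus five library-drug doses (not always all listed) in √10 steps. After 5 days, cells were fixed and their nuclei stained in one step (final 0.05% Triton X-100, 1% formaldehyde, 1 ug/ml Hoechst), then counted on 4× images. Relative viability is the nuclei count in treated wells divided by that in vehicle wells. Values are medians of duplicate plates.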

CAL-12T = tested on: CAL-12T
In short: as §1

EPLC-272H = tested on: EPLC-272H
In short: as §1

HCC-366 = tested on: HCC-366
In short: as §1

HCC-78 = tested on: HCC-78
In short: as §1

LC-2-ad = tested on: LC-2-ad
In short: as §1

LOU-NH91 = tested on: LOU-NH91
In short: as §1

LU99A = tested on: LU99A
In short: as §1

NCI-H1395 = tested on: NCI-H1395
In short: as §1

NCI-H1651 = tested on: NCI-H1651
In short: as §1

NCI-H1734 = tested on: NCI-H1734
In short: as §1

NCI-H1755 = tested on: NCI-H1755
In short: as §1

NCI-H1793 = tested on: NCI-H1793
In short: as §1

NCI-H1944 = tested on: NCI-H1944
In short: as §1

NCI-H2087 = tested on: NCI-H2087
In short: as §1

NCI-H2170 = tested on: NCI-H2170
In short: as §1

NCI-H2228 = tested on: NCI-H2228
In short: as §1

NCI-H2405 = tested on: NCI-H2405
In short: as §1

NCI-H3122 = tested on: NCI-H3122
In short: as §1

NCI-H460 = tested on: NCI-H460
In short: as §1

PC-3 [JPC-3] = tested on: PC-3 [JPC-3]
In short: as §1

RERF-LC-KJ = tested on: RERF-LC-KJ
In short: as §1

UMC-11 = tested on: UMC-11
In short: as §1

SMILES: COc1cc(N2CCC(C(N)=O)CC2)ccc1Nc1nc(N)c(Cl)c(Nc2ccccc2S(=O)(=O)C(C)C)n1 [HG-5-88-01] + Cc1nc(NC(=O)N2CCC[C@H]2C(N)=O)sc1-c1ccnc(C(C)(C)C(F)(F)F)c1 [Alpelisib] (partner 2 µM)
- relative viability (ABC-1; first compound 0.04 µM): 0.919
- relative viability (ABC-1; first compound 0.1265 µM): 0.885
- relative viability (ABC-1; first compound 0.4 µM): 0.855
- relative viability (ABC-1; first compound 1.265 µM): 0.713
- relative viability (ABC-1; first compound 4 µM): 0.993
- relative viability (CAL-12T; first compound 0.04 µM): 1.11
- relative viability (CAL-12T; first compound 0.1265 µM): 1.3
- relative viability (CAL-12T; first compound 0.4 µM): 1.19
- relative viability (CAL-12T; first compound 1.265 µM): 1.12
- relative viability (CAL-12T; first compound 4 µM): 0.874
- relative viability (EPLC-272H; first compound 0.04 µM): 0.931
- relative viability (EPLC-272H; first compound 0.1265 µM): 0.838
- relative viability (EPLC-272H; first compound 0.4 µM): 1.12
- relative viability (EPLC-272H; first compound 1.265 µM): 0.804
- relative viability (EPLC-272H; first compound 4 µM): 0.253
- relative viability (HCC-366; first compound 0.04 µM): 0.49
- relative viability (HCC-366; first compound 0.1265 µM): 0.382
- relative viability (HCC-366; first compound 0.4 µM): 0.309
- relative viability (HCC-366; first compound 1.265 µM): 0.418
- relative viability (HCC-366; first compound 4 µM): 0.327
- relative viability (HCC-78; first compound 0.04 µM): 0.352
- relative viability (HCC-78; first compound 0.1265 µM): 0.304
- relative viability (HCC-78; first compound 0.4 µM): 0.263
- relative viability (HCC-78; first compound 1.265 µM): 0.207
- relative viability (HCC-78; first compound 4 µM): 0.241
- relative viability (LC-2-ad; first compound 0.04 µM): 0.91
- relative viability (LC-2-ad; first compound 0.1265 µM): 0.924
- relative viability (LC-2-ad; first compound 0.4 µM): 0.84
- relative viability (LC-2-ad; first compound 1.265 µM): 0.856
- relative viability (LC-2-ad; first compound 4 µM): 0.871
- relative viability (LOU-NH91; first compound 0.04 µM): 0.713
- relative viability (LOU-NH91; first compound 0.1265 µM): 0.67
- relative viability (LOU-NH91; first compound 0.4 µM): 0.659
- relative viability (LOU-NH91; first compound 1.265 µM): 0.545
- relative viability (LOU-NH91; first compound 4 µM): 0.528
- relative viability (LU99A; first compound 0.04 µM): 0.561
- relative viability (LU99A; first compound 0.1265 µM): 0.514
- relative viability (LU99A; first compound 0.4 µM): 0.513
- relative viability (LU99A; first compound 1.265 µM): 0.552
- relative viability (LU99A; first compound 4 µM): 0.422
- relative viability (NCI-H1395; first compound 0.04 µM): 1.09
- relative viability (NCI-H1395; first compound 0.1265 µM): 1.06
- relative viability (NCI-H1395; first compound 0.4 µM): 1.1
- relative viability (NCI-H1395; first compound 1.265 µM): 0.909
- relative viability (NCI-H1395; first compound 4 µM): 0.986
- relative viability (NCI-H1651; first compound 0.04 µM): 0.927
- relative viability (NCI-H1651; first compound 0.1265 µM): 1
- relative viability (NCI-H1651; first compound 0.4 µM): 0.962
- relative viability (NCI-H1651; first compound 1.265 µM): 0.906
- relative viability (NCI-H1651; first compound 4 µM): 1.2
- relative viability (NCI-H1734; first compound 0.04 µM): 0.633
- relative viability (NCI-H1734; first compound 0.1265 µM): 0.657
- relative viability (NCI-H1734; first compound 0.4 µM): 0.727
- relative viability (NCI-H1734; first compound 1.265 µM): 0.713
- relative viability (NCI-H1734; first compound 4 µM): 0.799
- relative viability (NCI-H1755; first compound 0.1265 µM): 0.938
- relative viability (NCI-H1755; first compound 0.4 µM): 0.912
- relative viability (NCI-H1755; first compound 1.265 µM): 0.897
- relative viability (NCI-H1755; first compound 4 µM): 1.05
- relative viability (NCI-H1793; first compound 0.1265 µM): 0.613
- relative viability (NCI-H1793; first compound 0.4 µM): 0.912
- relative viability (NCI-H1793; first compound 1.265 µM): 0.45
- relative viability (NCI-H1793; first compound 4 µM): 0.723
- relative viability (NCI-H1944; first compound 0.04 µM): 0.801
- relative viability (NCI-H1944; first compound 0.1265 µM): 0.833
- relative viability (NCI-H1944; first compound 0.4 µM): 1.01
- relative viability (NCI-H1944; first compound 1.265 µM): 0.71
- relative viability (NCI-H1944; first compound 4 µM): 0.844
- relative viability (NCI-H2087; first compound 0.04 µM): 0.967
- relative viability (NCI-H2087; first compound 0.1265 µM): 1.17
- relative viability (NCI-H2087; first compound 0.4 µM): 0.997
- relative viability (NCI-H2087; first compound 1.265 µM): 1.04
- relative viability (NCI-H2087; first compound 4 µM): 0.974
- relative viability (NCI-H2170; first compound 0.04 µM): 0.761
- relative viability (NCI-H2170; first compound 0.1265 µM): 0.833
- relative viability (NCI-H2170; first compound 0.4 µM): 0.795
- relative viability (NCI-H2170; first compound 1.265 µM): 0.46
- relative viability (NCI-H2170; first compound 4 µM): 0.803
- relative viability (NCI-H2228; first compound 0.04 µM): 0.242
- relative viability (NCI-H2228; first compound 0.1265 µM): 0.297
- relative viability (NCI-H2228; first compound 0.4 µM): 0.324
- relative viability (NCI-H2228; first compound 1.265 µM): 0.224
- relative viability (NCI-H2228; first compound 4 µM): 0.476
- relative viability (NCI-H2405; first compound 0.04 µM): 0.749
- relative viability (NCI-H2405; first compound 0.1265 µM): 0.832
- relative viability (NCI-H2405; first compound 0.4 µM): 0.726
- relative viability (NCI-H2405; first compound 1.265 µM): 0.418
- relative viability (NCI-H2405; first compound 4 µM): 0.794
- relative viability (NCI-H3122; first compound 0.04 µM): 0.624
- relative viability (NCI-H3122; first compound 0.1265 µM): 0.259
- relative viability (NCI-H3122; first compound 0.4 µM): 0.245
- relative viability (NCI-H3122; first compound 1.265 µM): 0.195
- relative viability (NCI-H3122; first compound 4 µM): 0.2
- relative viability (NCI-H460; first compound 0.04 µM): 0.466
- relative viability (NCI-H460; first compound 0.1265 µM): 0.461
- relative viability (NCI-H460; first compound 0.4 µM): 0.461
- relative viability (NCI-H460; first compound 1.265 µM): 0.335
- relative viability (NCI-H460; first compound 4 µM): 0.304
- relative viability (PC-3 [JPC-3]; first compound 0.04 µM): 0.965
- relative viability (PC-3 [JPC-3]; first compound 0.1265 µM): 1.04
- relative viability (PC-3 [JPC-3]; first compound 0.4 µM): 1
- relative viability (PC-3 [JPC-3]; first compound 1.265 µM): 0.971
- relative viability (PC-3 [JPC-3]; first compound 4 µM): 0.825
- relative viability (RERF-LC-KJ; first compound 0.04 µM): 0.838
- relative viability (RERF-LC-KJ; first compound 0.1265 µM): 0.675
- relative viability (RERF-LC-KJ; first compound 0.4 µM): 0.935
- relative viability (RERF-LC-KJ; first compound 1.265 µM): 0.551
- relative viability (RERF-LC-KJ; first compound 4 µM): 0.874
- relative viability (UMC-11; first compound 0.04 µM): 1.01
- relative viability (UMC-11; first compound 0.1265 µM): 1
- relative viability (UMC-11; first compound 0.4 µM): 0.998
- relative viability (UMC-11; first compound 1.265 µM): 0.945
- relative viability (UMC-11; first compound 4 µM): 0.954
